Data reported in publication PMC9415947 (Pharmaceuticals, 2022).

Experiments:
[1] = Plasma protein binding, mice; type: in vitro ADME; conditions: mouse
Description: Table 5 Selected parameters measured for CPL302415 (6). | column: Plasma Protein Binding [%] / Mice

[2] = Metabolic stability in human liver microsomes (HLM); type: in vitro ADME; conditions: read-out: Metabolic Stability HLM t½
PI3Kγ = target: T1, PI3Kγ (Homo sapiens, UniProt P48736); test: In vitro PI3K inhibition assay (ADP-Glo kinase assay), PI3Kγ; type: biochemical
T1 construct: purchased Merck Millipore

Bioavailability in mice = conditions: mouse, in vivo, depending on the formulation form, read-out: bioavailability F
[3] = Plasma protein binding, rat; type: in vitro ADME
Description: Table 5 Selected parameters measured for CPL302415 (6). | column: Plasma Protein Binding [%] / Rat

[4] = Plasma protein binding, range across species; type: in vitro ADME; conditions: human, monkey, mouse, rat, range depending on the species, read-out: plasma protein binding (PPBs)
[5] = Metabolic stability in mouse liver microsomes (MLM); type: in vitro ADME, mouse (CD-1)
PI3Kδ = target: T2, PI3Kδ (Homo sapiens, UniProt O00329); test: In vitro PI3K inhibition assay (ADP-Glo kinase assay), PI3Kδ; type: biochemical; conditions: mean of two independent experiments
T2 construct: purchased Merck Millipore

PI3Kβ = target: T3, PI3Kβ (Homo sapiens, UniProt P42338); test: In vitro PI3K inhibition assay (ADP-Glo kinase assay), PI3Kβ; type: biochemical
T3 construct: purchased Merck Millipore
Description: (§1) All compounds were tested in a biochemical assay that measured the inhibition of phosphatidylinositol […] production by PI3K isoforms using the ADP-Glo kinase assay (Promega). In addition, the effects of synthesized compounds on B cell proliferation were measured.
(§2) The potency and selectivity of compounds were assessed by measuring the ability of PI3K kinases to convert ATP to ADP during an enzymatic reaction in the presence of decreasing doses of tested compounds. The experiments were carried out using the ADP-Glo kinase assay kit (Promega), according to the manufacturer’s protocol. PI3Kα, PI3Kβ, PI3Kδ, and PI3Kγ have been purchased from Merck Millipore and phosphoinositol-4,5-bisphosphate (PIP2) lipid vesicles with phosphoserine from ThermoFisher Scientific were used as a substrate in the enzymatic reaction.
(§3) After the reaction, the ADP-Glo reagent and the kinase detection reagent were added sequentially with 40 min of incubation (25 °C, 600 rpm) after adding each reagent. Finally, the luminescence intensity was measured and the IC50 was calculated using GraphPad Prism 7 software. The presented results are the mean value of IC50 from at least two independent experiments.

PAMPA permeability = type: in vitro ADME
Bioavailability in dogs = conditions: dog, in vivo, depending on the formulation form, read-out: bioavailability F
PI3Kα = target: T4, PI3Kα (Homo sapiens, UniProt P42336); test: In vitro PI3K inhibition assay (ADP-Glo kinase assay), PI3Kα; type: biochemical
T4 construct: purchased Merck Millipore (methods text)
Description: as §1, §2, §3

[6] = Kinetic solubility, shake-flask protocol; type: physicochemical; conditions: aqueous buffer, kinetic from dmso stock; phosphate-buffered saline pH 7.4, 25 °C
[7] = Plasma protein binding, human; type: in vitro ADME
Description: Table 5 Selected parameters measured for CPL302415 (6). | column: Plasma Protein Binding [%] / Human

CD19+ B cells = test: B cell (CD19+) proliferation assay, CFSE flow cytometry; type: cell-based; conditions: Homo sapiens, B-cell, 96 h, read-out: IC50 CD19
Description: CD19 cells were isolated from PBMCs using magnetic beads (Stem Cell (Vancouver, Canada)) and then labeled with 2 µM of CFSE (Invitrogen (Waltham, MA, USA)).
After 4 days, cells were stained with LIVE/DEAD™ kit (Invitrogen (Waltham, MA, USA)). Samples were acquired using Attune NxT flow cytometer (Invitrogen) and analyzed using FlowJo software. Each biological assay was performed with cells isolated from a different donor. The presented results constitute the average percentage values of proliferating cells from 3 independent experiments.
Human PBMCs were isolated from buffy coats of healthy donors obtained from the Regional Blood Donation and Blood Medicine Center in Warsaw. Lymphocytes B: CD19+ cells were isolated from PBMCs on magnetic beads (Stem Cell), labeled with 2 µM CFSE (Invitrogen), and seeded on a 96-well plate (1 × 10^5 cells/well). B cells were activated by 2 µg/mL of αIgM (Jackson ImmunoResearch) and 1 µg/mL of ODN2006 (InvivoGen). Cells were incubated with increasing concentrations of compounds (range 0.03–10,000 nM). After 4 days, B cells were stained with LIVE/DEAD™ kit (Invitrogen), acquired using the Attune NxT flow cytometer (Invitrogen), and analyzed using FlowJo10 software. For data normalization, the percentage value of proliferating cells in each sample was divided by the average percentage value of positive control in a single experiment. IC50 values were calculated using a three-parameter dose–response inhibition function in GraphPad Prism.

[8] = Plasma protein binding, monkey; type: in vitro ADME
Description: Table 5 Selected parameters measured for CPL302415 (6). | column: Plasma Protein Binding [%] / Monkey

[9] = mean of two independent experiments

T3 sequence (P42338 whole entry, looked up): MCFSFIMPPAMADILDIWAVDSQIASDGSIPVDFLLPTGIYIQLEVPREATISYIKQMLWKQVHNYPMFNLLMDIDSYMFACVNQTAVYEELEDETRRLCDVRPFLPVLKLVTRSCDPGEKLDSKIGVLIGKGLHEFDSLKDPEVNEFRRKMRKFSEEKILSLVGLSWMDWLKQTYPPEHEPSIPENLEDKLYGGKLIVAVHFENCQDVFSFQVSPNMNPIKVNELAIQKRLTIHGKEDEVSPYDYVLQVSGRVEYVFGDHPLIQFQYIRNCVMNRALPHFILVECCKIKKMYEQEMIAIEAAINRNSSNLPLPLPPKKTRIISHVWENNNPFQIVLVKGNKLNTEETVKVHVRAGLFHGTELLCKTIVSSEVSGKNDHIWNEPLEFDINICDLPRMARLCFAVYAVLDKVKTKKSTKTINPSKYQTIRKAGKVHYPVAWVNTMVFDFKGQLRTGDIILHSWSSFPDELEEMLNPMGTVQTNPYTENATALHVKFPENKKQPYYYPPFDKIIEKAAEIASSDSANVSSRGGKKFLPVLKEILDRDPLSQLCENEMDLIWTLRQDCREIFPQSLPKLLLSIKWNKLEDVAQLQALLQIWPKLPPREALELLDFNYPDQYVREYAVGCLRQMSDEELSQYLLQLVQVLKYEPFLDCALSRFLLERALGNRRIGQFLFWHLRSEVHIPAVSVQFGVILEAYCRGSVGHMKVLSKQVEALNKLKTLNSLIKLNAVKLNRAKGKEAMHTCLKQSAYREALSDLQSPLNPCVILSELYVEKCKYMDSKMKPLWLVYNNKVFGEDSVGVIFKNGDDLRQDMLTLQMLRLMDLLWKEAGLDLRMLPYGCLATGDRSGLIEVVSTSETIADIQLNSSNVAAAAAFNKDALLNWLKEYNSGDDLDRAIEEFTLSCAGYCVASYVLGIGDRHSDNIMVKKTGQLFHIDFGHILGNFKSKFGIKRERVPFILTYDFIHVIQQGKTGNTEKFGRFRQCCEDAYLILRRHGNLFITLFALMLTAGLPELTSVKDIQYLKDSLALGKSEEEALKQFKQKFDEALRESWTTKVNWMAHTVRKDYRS
T4 sequence (P42336 whole entry): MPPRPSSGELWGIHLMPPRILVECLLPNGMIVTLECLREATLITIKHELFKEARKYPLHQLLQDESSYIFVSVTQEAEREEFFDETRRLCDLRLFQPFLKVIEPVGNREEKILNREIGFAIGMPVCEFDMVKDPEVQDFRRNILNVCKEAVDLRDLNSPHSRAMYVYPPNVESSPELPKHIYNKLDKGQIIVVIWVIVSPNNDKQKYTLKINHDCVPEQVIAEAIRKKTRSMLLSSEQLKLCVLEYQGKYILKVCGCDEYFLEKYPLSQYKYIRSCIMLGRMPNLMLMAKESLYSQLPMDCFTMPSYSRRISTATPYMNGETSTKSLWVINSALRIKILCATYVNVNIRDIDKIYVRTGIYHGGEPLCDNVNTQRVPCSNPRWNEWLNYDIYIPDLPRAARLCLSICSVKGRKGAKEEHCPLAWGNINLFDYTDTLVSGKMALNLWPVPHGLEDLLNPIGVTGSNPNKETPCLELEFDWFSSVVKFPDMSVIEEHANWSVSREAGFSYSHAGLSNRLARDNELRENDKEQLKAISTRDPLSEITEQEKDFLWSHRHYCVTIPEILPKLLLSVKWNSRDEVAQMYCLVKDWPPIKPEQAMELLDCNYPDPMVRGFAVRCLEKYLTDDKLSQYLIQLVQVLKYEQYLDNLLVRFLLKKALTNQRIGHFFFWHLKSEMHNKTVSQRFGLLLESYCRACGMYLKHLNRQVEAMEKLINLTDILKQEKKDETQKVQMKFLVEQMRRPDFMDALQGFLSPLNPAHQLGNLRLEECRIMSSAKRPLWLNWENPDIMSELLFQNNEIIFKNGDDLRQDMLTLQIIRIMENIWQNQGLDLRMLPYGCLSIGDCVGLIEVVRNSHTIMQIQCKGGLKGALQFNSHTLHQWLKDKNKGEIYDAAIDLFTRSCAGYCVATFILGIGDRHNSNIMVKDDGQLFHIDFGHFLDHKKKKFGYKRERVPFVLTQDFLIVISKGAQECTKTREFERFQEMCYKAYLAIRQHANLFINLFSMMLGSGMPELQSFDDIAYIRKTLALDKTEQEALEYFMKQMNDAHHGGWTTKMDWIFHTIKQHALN
T4 sequence (P27986 whole entry partner): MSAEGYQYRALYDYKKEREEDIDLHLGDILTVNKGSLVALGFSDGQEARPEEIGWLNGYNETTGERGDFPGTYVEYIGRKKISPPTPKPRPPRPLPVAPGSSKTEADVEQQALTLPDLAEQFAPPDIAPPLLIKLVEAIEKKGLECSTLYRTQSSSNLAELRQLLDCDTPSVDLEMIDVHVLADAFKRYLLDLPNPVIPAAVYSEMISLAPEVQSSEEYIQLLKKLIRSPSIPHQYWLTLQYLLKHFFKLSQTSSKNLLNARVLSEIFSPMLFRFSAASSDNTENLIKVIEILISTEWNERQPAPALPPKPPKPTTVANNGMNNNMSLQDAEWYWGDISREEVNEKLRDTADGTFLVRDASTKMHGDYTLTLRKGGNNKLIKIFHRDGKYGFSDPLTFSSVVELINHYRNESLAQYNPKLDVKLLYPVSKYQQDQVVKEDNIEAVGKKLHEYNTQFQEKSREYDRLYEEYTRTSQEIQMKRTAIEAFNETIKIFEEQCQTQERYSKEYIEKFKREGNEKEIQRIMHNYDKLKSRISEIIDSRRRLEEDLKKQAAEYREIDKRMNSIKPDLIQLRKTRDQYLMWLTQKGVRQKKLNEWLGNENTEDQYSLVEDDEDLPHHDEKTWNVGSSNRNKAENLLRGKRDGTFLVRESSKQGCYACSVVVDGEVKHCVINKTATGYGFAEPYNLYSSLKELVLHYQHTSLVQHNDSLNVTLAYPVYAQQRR
T1 sequence (P48736 whole entry): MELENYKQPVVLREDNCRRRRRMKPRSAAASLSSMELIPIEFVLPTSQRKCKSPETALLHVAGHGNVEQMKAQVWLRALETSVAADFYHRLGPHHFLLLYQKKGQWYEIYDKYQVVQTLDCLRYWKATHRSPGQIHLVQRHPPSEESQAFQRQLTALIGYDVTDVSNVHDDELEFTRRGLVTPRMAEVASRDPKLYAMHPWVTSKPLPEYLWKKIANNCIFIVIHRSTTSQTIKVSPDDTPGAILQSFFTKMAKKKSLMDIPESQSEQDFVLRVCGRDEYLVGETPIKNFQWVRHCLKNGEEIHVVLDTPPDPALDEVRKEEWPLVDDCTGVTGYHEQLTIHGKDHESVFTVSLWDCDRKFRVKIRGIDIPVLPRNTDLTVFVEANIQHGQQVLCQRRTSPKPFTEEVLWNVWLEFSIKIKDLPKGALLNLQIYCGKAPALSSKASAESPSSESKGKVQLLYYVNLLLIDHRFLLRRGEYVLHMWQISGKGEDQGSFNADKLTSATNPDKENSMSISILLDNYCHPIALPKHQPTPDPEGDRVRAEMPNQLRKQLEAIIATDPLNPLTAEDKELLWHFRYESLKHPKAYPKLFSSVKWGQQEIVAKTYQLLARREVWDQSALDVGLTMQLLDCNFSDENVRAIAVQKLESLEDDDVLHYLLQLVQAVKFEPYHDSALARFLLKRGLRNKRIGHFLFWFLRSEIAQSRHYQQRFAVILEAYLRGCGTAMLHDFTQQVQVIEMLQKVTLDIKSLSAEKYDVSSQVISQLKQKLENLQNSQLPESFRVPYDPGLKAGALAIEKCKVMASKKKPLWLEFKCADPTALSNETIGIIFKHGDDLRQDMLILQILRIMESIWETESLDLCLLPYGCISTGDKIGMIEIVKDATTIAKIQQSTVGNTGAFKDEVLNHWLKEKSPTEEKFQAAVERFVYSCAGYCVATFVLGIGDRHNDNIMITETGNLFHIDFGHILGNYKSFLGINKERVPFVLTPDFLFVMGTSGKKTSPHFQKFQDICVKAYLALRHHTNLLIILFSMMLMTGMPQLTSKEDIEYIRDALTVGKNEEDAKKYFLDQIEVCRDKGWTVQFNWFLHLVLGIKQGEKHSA
T2 sequence (O00329 whole entry, looked up): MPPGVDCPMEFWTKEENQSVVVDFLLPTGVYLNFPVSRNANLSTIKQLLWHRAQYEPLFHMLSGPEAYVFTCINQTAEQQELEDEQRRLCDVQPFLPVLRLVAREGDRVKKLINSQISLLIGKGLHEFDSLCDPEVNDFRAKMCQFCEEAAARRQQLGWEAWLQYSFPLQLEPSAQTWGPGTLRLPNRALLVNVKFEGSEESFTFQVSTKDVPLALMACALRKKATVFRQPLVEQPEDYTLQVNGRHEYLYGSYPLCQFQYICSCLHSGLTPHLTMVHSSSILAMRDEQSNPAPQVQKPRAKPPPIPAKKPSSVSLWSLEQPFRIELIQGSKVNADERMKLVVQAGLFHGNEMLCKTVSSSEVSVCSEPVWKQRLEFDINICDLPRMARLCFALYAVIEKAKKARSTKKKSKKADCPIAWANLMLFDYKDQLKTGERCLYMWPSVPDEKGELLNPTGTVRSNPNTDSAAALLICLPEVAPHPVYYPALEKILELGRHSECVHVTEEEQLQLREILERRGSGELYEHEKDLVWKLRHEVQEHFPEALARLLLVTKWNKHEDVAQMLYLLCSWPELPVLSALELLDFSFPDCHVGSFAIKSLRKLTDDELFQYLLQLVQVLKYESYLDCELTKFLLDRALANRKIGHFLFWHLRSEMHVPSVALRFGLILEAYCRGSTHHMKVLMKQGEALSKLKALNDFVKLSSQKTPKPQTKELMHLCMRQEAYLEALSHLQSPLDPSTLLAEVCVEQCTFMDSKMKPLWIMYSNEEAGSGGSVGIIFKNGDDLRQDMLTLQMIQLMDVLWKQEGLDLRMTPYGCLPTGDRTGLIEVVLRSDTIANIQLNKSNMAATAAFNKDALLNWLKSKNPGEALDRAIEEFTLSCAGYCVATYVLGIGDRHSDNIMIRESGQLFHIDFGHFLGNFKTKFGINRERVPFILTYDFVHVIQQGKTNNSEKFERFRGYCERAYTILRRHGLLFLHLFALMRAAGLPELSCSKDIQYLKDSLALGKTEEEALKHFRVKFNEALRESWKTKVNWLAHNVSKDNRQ

## CC(C)(C)N1CCN(Cc2cc3nc(-n4c(C(F)F)nc5ccccc54)cc(N4CCOCC4)n3n2)CC1 [Compound 6, 1-{2-[(4-tert-butylpiperazin-1-yl)methyl]-7-(morpholin-4-yl)pyrazolo[1,5-a]pyrimidin-5-yl}-2-(difluoromethyl)-1H-benzimidazole]
[1]
  fraction unbound: 0.17
[2]
  half-life at 1 μM: 145 min
PI3Kγ; [9]
  IC50: 16.9 µM
PI3Kγ; ratio IC50 PI3Kγ / IC50 PI3Kδ
  Fold Selectivity γ/δ: 939
Bioavailability in mice
  bioavailability: > 55%
[3]
  fraction unbound: 0.18
[4]
  fraction unbound: 0.17 to 0.21
[5]; CD-1, read-out: Metabolic Stability MLM CL
  microsomal CLint at 1 μM: 3.7 µL/min/mg
[5]; CD-1, read-out: Metabolic Stability MLM t½
  half-life at 1 μM: 378 min
PI3Kδ
  IC50: 18 nM
PI3Kβ; [9]
  IC50: 25.5 µM
PI3Kβ; ratio IC50 PI3Kβ / IC50 PI3Kδ
  Fold Selectivity β/δ: 1415
PAMPA permeability
  Papp: 13.3 ×10⁻⁶ cm/s
Bioavailability in dogs
  bioavailability: > 90%
PI3Kα
  IC50: 1430 nM
PI3Kα; ratio IC50 PI3Kα / IC50 PI3Kδ
  Fold Selectivity α/δ: 79
[6]
  solubility kinetic at 24 h: > 500 µM
[7]
  fraction unbound: 0.21
CD19+ B cells
  IC50: 41 nM
[8]
  fraction unbound: 0.19
